Counter-ions that a name gives are not always drawn. Like-named read-outs stand apart in the source and are kept apart here.
How the values were obtained:
[1] = tested on: contraction of the aorta strip caused by norepinephrine (NE); test: Vasodilating action: inhibition of contraction of rabbit aorta strip caused by norepinephrine (NE); assay type: cell-based; details: Oryctolagus cuniculus, compound 10^-5 M, NE 10^-6 M, 15 min pretreatment, read-out: Inhibitory percent against contraction, NE
Description: (§1) A spiral strip of aorta of a rabbit (2-3 mm width, about 3 cm length) was allowed to equilibrate by hanging under 2 g force in a Krebs-Henseleit solution. The solution was saturated with a mixture gas of 97% O2 --3% CO2 which was warmed to 37° C. Inhibitory actions of compounds (10^-5 M) of this invention against contraction of the aorta strip caused by KCl (60 mM), norepinephrine (NE) (10^-6 M) or serotonin (5--HT) (10^-6 M), by treating the strip with a compound of this invention 15 minutes before the test, are shown in Table 1 as inhibitory percent.

[2] = tested on: contraction of the aorta strip caused by KCl; test: Vasodilating action: inhibition of contraction of rabbit aorta strip caused by KCl; assay type: cell-based; details: Oryctolagus cuniculus, compound 10^-5 M, KCl 60 mM, 15 min pretreatment, read-out: Inhibitory percent against contraction, KCl
Description: as §1

[3] = tested on: spontaneously hypertensive rats; test: Antihypertensive action in spontaneously hypertensive rats (tail-cuff); assay type: in vivo; details: 1 h after administration
Description: Male 12 to 13 weeks old spontaneously hypertensive rats with about 200 mm Hg of blood pressure were used in groups of 3 individuals. Mean arterial blood pressures of these animals were measured by the tail-cuff method, then the animals were orally given 3-60 mg/kg of each test compound of this invention as 2 ml of its suspension in gum arabic. Blood pressure measurements were made again one hour after administration of each test compound.

[4] = tested on: contraction of the aorta strip caused by serotonin (5--HT); test: Vasodilating action: inhibition of contraction of rabbit aorta strip caused by serotonin (5-HT); assay type: cell-based; details: Oryctolagus cuniculus, compound 10^-5 M, 5-HT 10^-6 M, 15 min pretreatment, read-out: Inhibitory percent against contraction, 5-HT
Description: as §1

[5] = tested on: contraction depending on intracellular Ca^++; test: Intracellular Ca++ antagonism: inhibition of phenylephrine contraction of aorta strip in Ca++-free EGTA solution; assay type: cell-based, rabbit; details: Oryctolagus cuniculus; compound 10^-6 M; phenylephrine 10^-6 M; Ca++ 0 mM, EGTA 5 mM; read-out: Inhibitory percent (contraction depending on intracellular Ca++)
Description: A spiral strip of aorta of a rabbit (2-3 mm width, about 3 cm length) was allowed to equilibrate by hanging under 2 g force in a Krebs-Henseleit solution. The solution was saturated with a mixture gas 97% O2 --3% CO2, which was warmed to 37° C. The strip was moved into another Krebs-Henseleit solution containing Ca^++ OmM and EGTA 5 mM. Five minutes later, phenylephrine (10^-6 M) was added on the solution. The resulting contraction of the strip was made as the index of the contraction depending on intracellular Ca^++.

Row | SMILES | inhibition at 10 µM [1] [%] | inhibition at 10 µM [2] [%] | Antihypertensive effect (difference of blood pressure before and after medication) ([3]; 30 mg/Kg oral) | inhibition at 10 µM ([1]; 0.25 h) [%] | inhibition at 10 µM [4] [%] | inhibition at 1 µM [5] [%] | Antihypertensive effect (difference of blood pressure before and after medication) ([3]; 10 mg/Kg oral) | Antihypertensive effect (difference of blood pressure before and after medication) ([3]; 60 mg/Kg oral)
1 | Cc1ccccc1N1CCN(CCCC2Sc3cccc(C)c3NC2=O)CC1 (stereo not shown) [Example 17] | 100 | 11 | 26 ΔmmHg |  |  |  |  | 
2 | Cc1ccc2c(c1C)NC(=O)C(CCCN1CCN(c3ccc(F)cc3)CC1)S2 (stereo not shown) [Example 42] |  |  | 28 ΔmmHg |  |  |  |  | 
3 | O=C1Nc2ccccc2SC1CCCCN1CCN(c2ccc(F)cc2)CC1 (stereo not shown) [Example 38, 2-[4-[4-(4-fluorophenyl)-1-piperazinyl]butyl]-2H-1,4-benzothiazin-3(4H)-one] |  | 30 | 32 ΔmmHg | 100 |  |  |  | 
4 | CN1C(=O)C(CCN2CCN(c3ccc(F)cc3)CC2)Sc2ccccc21 (stereo not shown) [Example 30, 2-[2-[4(4-fluorophenyl)-1-piperazinyl]ethyl]-4-methyl-2H-1,4-benzothiazin-3(4H)-one] |  | 42 | 40 ΔmmHg | 90 | 100 |  |  | 
5 | O=C1Nc2c(ccc3c2CCCC3)SC1CCCN1CCN(c2ccc(F)cc2)CC1 (stereo not shown) [Example 47, 3-[3-[4-(4-fluorophenyl)-1-piperazinyl]propyl]-7,8,9,10-tetrahydro-1H-naphtho[2,1-b][1,4]thiazin-2(3H)-one.hydrochloride] |  |  | 35 ΔmmHg |  |  |  |  | 
6 | COc1ccccc1N1CCN(CCCC2Sc3cc(C)cc(C)c3NC2=O)CC1 (stereo not shown) [Example 22] | 100 | 62 | 39 ΔmmHg |  | 15 | 100 |  | 
7 | Cc1cccc2c1NC(=O)C(CCCN1CCN(c3cccc(C(F)(F)F)c3)CC1)S2 (stereo not shown) [Example 19] | 100 | 55 |  |  |  |  |  | 
8 | Cc1cccc(N2CCN(CCCC3Sc4cccc(C)c4NC3=O)CC2)c1 (stereo not shown) [Example 18] | 100 | 50 |  |  |  |  |  | 
9 | COc1ccc2c(c1)SC(CCCN1CCN(c3ccccc3)CC1)C(=O)N2 (stereo not shown) [Example 5] | 100 | 10 |  |  | 100 |  | 49 ΔmmHg | 
10 | COc1ccc2c(c1)SC(CCCN1CCN(c3ccccc3OC)CC1)C(=O)N2 (stereo not shown) [Example 6] | 100 | 26 |  |  | 91 |  | 64 ΔmmHg | 
11 | O=C1Nc2ccccc2SC1CCCN1CCN(c2ccc(F)cc2)CC1 (stereo not shown) [Example 3] | 100 | 53 |  |  |  |  |  | 
12 | COc1ccc2c(c1)SC(CCN1CCN(c3ccccc3)CC1)C(=O)N2 (stereo not shown) [Example 29] | 96 | 15 |  |  | 73 |  | 38 ΔmmHg | 
13 | O=C1Nc2ccccc2SC1CCN1CCN(c2ccc(F)cc2)CC1 (stereo not shown) [Example 26] |  | 60 | 26 ΔmmHg | 60 |  |  |  | 
14 | COc1cccc2c1NC(=O)C(CCCN1CCN(c3ccccc3)CC1)S2 (stereo not shown) [Example 24] | 100 | 20 |  |  | 66 |  |  | 
15 | Cc1cccc2c1NC(=O)C(CCCN1CCN(c3cccc(Cl)c3)CC1)S2 (stereo not shown) [Example 14] | 100 | 50 | 26 ΔmmHg |  |  | 100 |  | 
16 | CCN1C(=O)C(CCN2CCN(c3ccccc3OC)CC2)Sc2ccccc21 (stereo not shown) [Example 36, 4-ethyl-2-[2-[4-(2-methoxyphenyl)-1-piperazinyl]ethyl]-2H-1,4-benzothiazin-3(4H)-one] |  | 15 |  | 100 | 100 |  |  | 
17 | O=C1Nc2ccccc2SC1CCCN1CCN(c2ccccc2)CC1 (stereo not shown) [Example 2] | 100 | 70 | 43 ΔmmHg |  | 97 |  |  | 
18 | Cc1cccc2c1NC(=O)C(CCCN1CCN(c3ccc(F)cc3)CC1)S2 (stereo not shown) [Example 12, 2-[3-[4-(4-fluorophenyl)-1-piperazinyl]propyl]-5-methyl-2H-1,4-benzothiazin-3(4H)-one] |  | 41 |  | 100 | 96 | 100 |  | 49 ΔmmHg

Row | SMILES | inhibition at 10 µM [1] [%] | inhibition at 10 µM [2] [%] | Antihypertensive effect (difference of blood pressure before and after medication) ([3]; 30 mg/Kg oral) | inhibition at 10 µM ([1]; 0.25 h) [%] | inhibition at 10 µM [4] [%] | inhibition at 1 µM [5] [%] | Antihypertensive effect (difference of blood pressure before and after medication) ([3]; 10 mg/Kg oral) | Antihypertensive effect (difference of blood pressure before and after medication) ([3]; 60 mg/Kg oral)
19 | COc1ccccc1N1CCN(CCC2Sc3ccccc3NC2=O)CC1 (stereo not shown) [Example 28] | 100 | 15 | 29 ΔmmHg |  | 100 |  |  | 
20 | O=C1Nc2ccccc2SC1CCN1CCN(c2ccccc2)CC1 (stereo not shown) [Example 27] | 100 | 20 |  |  | 100 |  |  | 
21 | O=C1Nc2cc(C(F)(F)F)ccc2SC1CCCN1CCN(c2ccc(F)cc2)CC1 (stereo not shown) [Example 10] | 100 | 45 | 33 ΔmmHg |  |  |  |  | 
22 | O=C1Nc2cc3c(cc2SC1CCCN1CCN(c2ccc(F)cc2)CC1)OCO3 (stereo not shown) [Example 45, 6-[3-[4-(4-fluorophenyl)-1-piperazinyl]propyl]-6H-1,3-dioxolo[4,5-g][1,4]benzothiazin-7(8H)-one.dihydrochloride] |  |  | 30 ΔmmHg |  |  |  |  | 
23 | Cc1cc2c(cc1C)SC(CCCN1CCN(c3ccc(F)cc3)CC1)C(=O)N2 (stereo not shown) [Example 1, 2-[3-[4-(4-fluorophenyl)-1-piperazinyl]propyl]-6,7-dimethyl-2H-1,4-benzothiazin-3(4H)-one] |  | 50 | 35 ΔmmHg | 100 |  | 66 |  | 
24 | Cc1cccc2c1NC(=O)C(CCCN1CCN(c3ccc(Cl)cc3)CC1)S2 (stereo not shown) [Example 15] | 100 | 40 |  |  | 20 | 30 |  | 
25 | COc1ccccc1N1CCN(CCC2Sc3ccccc3N(C)C2=O)CC1 (stereo not shown) [Example 32] | 100 |  |  |  | 88 |  |  | 30 ΔmmHg
26 | COc1ccccc1N1CCN(CCCC2Sc3ccccc3NC2=O)CC1 (stereo not shown) [Example 25, 2-[3-[4-(2-methoxyphenyl)-1-piperazinyl]propyl]-2H-1,4-benzothiazin-3(4H)-one] |  | 10 | 66 ΔmmHg | 100 | 84 |  |  | 
27 | COc1ccccc1N1CCN(CCCC2Sc3cc(C)ccc3NC2=O)CC1 (stereo not shown) [Example 21] | 100 | 32 |  |  | 56 |  |  | 
28 | COc1ccccc1N1CCN(CCCC2Sc3cccc(OC)c3NC2=O)CC1 (stereo not shown) [Example 4] | 100 | 18 |  |  | 12 |  |  | 
29 | CCc1cccc2c1NC(=O)C(CCCN1CCN(c3ccc(F)cc3)CC1)S2 (stereo not shown) [Example 41] |  |  | 23 ΔmmHg |  |  |  |  | 
30 | COc1ccccc1N1CCN(CCCC2Sc3cc(Cl)ccc3NC2=O)CC1 (stereo not shown) [Example 9] | 100 | 40 |  |  | 44 |  |  | 35 ΔmmHg
31 | COc1ccccc1N1CCN(CCCC2Sc3ccc(Cl)cc3NC2=O)CC1 (stereo not shown) [Example 8] | 100 | 34 |  |  | 18 |  |  | 
32 | Cc1ccc(N2CCN(CCCC3Sc4cccc(C)c4NC3=O)CC2)cc1 (stereo not shown) [Example 7] | 60 | 77 |  |  |  |  |  | 
33 | COc1ccccc1N1CCN(CCCC2Sc3cc(C)c(C)cc3NC2=O)CC1 (stereo not shown) [Example 23] | 100 | 40 | 48 ΔmmHg |  |  |  |  | 
34 | COc1ccccc1N1CCN(CCCC2Sc3cccc(C)c3NC2=O)CC1 (stereo not shown) [Example 16] | 100 | 33 |  |  | 70 |  |  | 
35 | Cc1cccc2c1NC(=O)C(CCCN1CCN(c3ccccc3)CC1)S2 (stereo not shown) [Example 13] | 100 | 40 |  |  | 92 |  |  | 36 ΔmmHg
36 | CN1C(=O)C(CCN2CCN(c3ccccc3)CC2)Sc2ccccc21 (stereo not shown) [Example 31] | 100 | 40 |  |  | 62 |  |  | 

Source: patent publication US4640916A, “1,4-benzothiazine derivatives, compositions containing them and method of use” (priority 1984, dated 1987)
